Measurements reported in paper PMC5124248, “Antitumor activity of TY-011 against gastric cancer by inhibiting Aurora A, Aurora B and VEGFR2 kinases” (Journal of Experimental & Clinical Cancer Research : CR, 2016).

Tested on: human MGC-803 xenograft
Assay: Antitumor activity in vivo, MGC-803 xenograft in nude mice
Parameters: species or system BALB/c nu/nu mice
Settings: 50 mg/kg intraperitoneally twice a week
Description: The animals were housed in specific pathogen-free (SPF) conditions at Key Laboratory of Brain Functional Genomics, Ministry of Education, and were acclimatized for a week prior to use. […] When the tumors reached a mean group size of 100 ~ 150 mm^3, the mice were randomized into control and treatment groups to receive treatment accordingly. […] The tumor growth was recorded with the measurement of length (L) and width (W) by caliper every other day, and calculated as tumor volume (V) = L × W^2/2. Meanwhile, the body weights of mice were recorded. The tumor volume at day n was expressed as relative tumor volume (RTV) according to the following formula: RTV% = (TVn/TV0) ×100%, where TVn is the tumor volume at day n and TV0 is the tumor volume at day 0. The therapeutic effect of treatment was calculated with formula T/C (%) = mean RTV of the treated group/mean RTV of the control group × 100%. […] The tumor regression of individual mouse was defined as the tumor volume at the end was less than the tumor volume when treatment was initiated.

CCc1c2c(nc3ccc(OC(=O)N4CCC(N5CCCCC5)CC4)cc13)-c1cc3c(c(=O)n1C2)COC(=O)[C@]3(O)CC [Irinotecan, reference compound]
T/C (%): 8.04% | Inhibition rate (%) (by tumor weight): 96.2% | Body weight (g) End (mean ± SEM): 21.4 ± 0.2 g | Tumor weight (mean ± SEM, control 0.79 g): 0.03 ± 0.01 g
